Measured values taken from patent US20230149360A1, “ALPHA-2 ADRENERGIC RECEPTOR AGONISTS FOR THE PREVENTION AND/OR THE TREATMENT OF SPLEEN DISORDERS” (UNIVERSITÉ CATHOLIQUE DE LOUVAIN, priority 2020, published 2023).

What was measured:
[1] = system: flatworm-induced splenomegaly (schistosomiasis); details: cited from earlier work
C57BL/6 J wild-type mice = details: romiplostim 1 mg/kg s.c. days 1, 8, 15, 5 mg/kg i.p. daily for two weeks from day 8
Experimental: (§1) 8-week female C57BL/6 J wild-type and Adra2a KO mice were administered saline or 1 mg/kg of romiplostim by a subcutaneous injection into the neck skin on days 1, 8 and 15. Clonidine or guanabenz were administrated i.p. at a dose of 5 mg/kg daily for two weeks starting from day 8. Mice were dissected on day 22 and spleen weight were measured. After killing, peripheral blood was drawn by cardiac puncture, the platelet concentration was measured by Cell Counter Analyzer MS9-5V.

Adra2a KO mice = details: romiplostim 1 mg/kg s.c. days 1, 8, 15, 5 mg/kg i.p. daily for two weeks from day 8
Experimental: as §1

[2] = system: C56BL/6 Adra2a KO mice implanted with MC38 colon carcinomas; test: Tumor-induced splenomegaly, MC38 colon carcinomas in Adra2a KO mice; assay type: in vivo; details: 5 mg/kg i.p. daily from tumor size around 50 mm^3
Experimental: (§2) C56BL/6 Wildtype or C56BL/6 Adra2a KO mice were implanted with MC38 colon carcinomas and received daily injections of vehicle control, guanabenz or clonidine (5 mg/kg, i.p.) when the tumor size was around 50 mm^3, until the day of sacrifice. Spleen weight were taken at the time of mice dissection.

TiRP tumor bearing mice = test: Tumor-induced splenomegaly in TiRP tumor bearing mice (spleen weight); assay type: in vivo; details: 5 mg/kg i.p. daily from tumor size around 500 mm^3 until sacrifice
Source text: TiRP mice have been created by crossing Ink4a/Arf^flox/flox mice with mice carrying a transgenic construct controlled by the tyrosinase promoter and driving the expression of H-Ras^12V and Trap1a which encodes a MAGE-type tumor antigen […]; the promoter is separated from the coding region by a stop cassette made of a floxed self-deleting CreER (Huijbers et al., 2006, Cancer Res 66, 3278-3286). Those mice were backcrossed to a B10.D2 background and bred to homozygosity. TCR[…] mice heterozygous for the H-2Ld/[…]-43-specific TCR transgene were kept on the B10.D2;Rag1^-/- background ([…] et al., 2004, J Immunol 172, 5069-5077). DBA/2 mice and C57BL/6J mice were used in tumor transplantation and mice immunization experiments. All mice used in this study were produced under specific pathogen free (SPF) conditions at the animal facility of the de Duve Institute. All the rules concerning animal welfare have been respected according to the 2010/63/EU Directive. All procedures were performed with the approval of the local Animal Ethical Committee, with reference 2015/UCL/MD/15. A fresh solution of […]-Tamoxifen was prepared by dissolving […]-Tamoxifen ([…]®) in 100% ethanol and mineral oil (ratio 1:9) followed by 30 min sonication, and injected subcutaneously (2 mg/200 μL per mouse) in the neck area of gender-matched 7 weeks old TiRP mice. Tumor appearance was monitored daily and tumors were measured three times/week. Tumor volume (in mm^3) was calculated by the following formula: Volume=width^2×length/2. C57BL/6 mice were injected subcutaneously with 1 million B16F1 or B16F10 melanoma cells at an age between 6 to 8 weeks. The mice received daily injections of guanabenz (5 mg/kg, i.p.) or PBS when the tumor size was around 100 mm^3. Mice were sacrificed when the tumor in control group reached 1,000 mm^3. Spleen were isolated and weighted. […] TiRP tumor bearing mice received daily injections of clonidine (5 mg/kg, i.p.), romifidine (5 mg/kg, i.p.) or PBS when the tumor size was around 500 mm^3. […] Spleen were isolated and spleen weight was measured with an analytical balance.

[3] = system: C56BL/6 Wildtype mice implanted with MC38 colon carcinomas; test: Tumor-induced splenomegaly, MC38 colon carcinomas in wildtype mice; assay type: in vivo; details: 5 mg/kg i.p. daily from tumor size around 50 mm^3
Experimental: as §2

[4] = system: BALB/c mice bearing CT26 colon carcinomas; test: Splenomegaly in mice bearing CT26 colon carcinomas, agonist/antagonist evaluation; assay type: in vivo; details: each drug 5 mg/kg i.p. daily from tumor size around 50 mm^3
Experimental: B16F1, B16F10 melanoma cells, and CT26 colon carcinoma cells were cultured in IMDM medium supplemented with 10% Fetal bovine serum (FBS). […] For evaluation of phentolamine on the effect of clonidine and guanabenz, the mice were randomized into different groups when tumors size arrived around 50 mm^3 and received daily injections of guanabenz (5 mg/kg, i.p.), phentolamine (5 mg/kg, i.p.), propranolol (5 mg/kg, i.p.), a mix of guanabenz (5 mg/kg, i.p.) and phentolamin (5 mg/kg, i.p.), clonidine (5 mg/kg, i.p.), a mix of clonidine (5 mg/kg, i.p.) and phentolamin (5 mg/kg, i.p.), a mix of clonidine (5 mg/kg, i.p.) and propranolol (5 mg/kg, i.p.) or vehicle control. Tumor size was measured every 2 days and mice were sacrificed when the tumor in control group reached 1,000 mm^3. Spleen were isolated and spleen weight was measured with an analytical balance. Spleen from mice of same age without tumors were used as controls.

TiRP-tumor bearing mice = TiRP-tumor bearing mice with ACT of 10 million P1A-specific CD8+ T cells; each drug 5 mg/kg i.p. daily from tumor size around 500 mm^3
[5] = system: mice transplanted with JAK2V617F mutated bone marrow; test: Splenomegaly induced by myelofibrosis (JAK2V617F mutated bone marrow transplantation); assay type: in vivo; details: for spleen weight (myelofibrosis-induced splenomegaly), prevention: treatment started one week after bone marrow transplantation, 5 mg/kg daily for three weeks; for spleen weight (myelofibrosis-induced splenomegaly), treatment: treatment started three weeks after bone marrow transplantation, splenomegaly already formed, 5 mg/kg daily for two weeks
DBA/2 mice = test: Splenomegaly induced by virus-mediated (Chadox_li_P1A prime, MVA_P1A boost) immunization; assay type: in vivo; details: 5 mg/kg 2 hours before and daily after immunization, two weeks
C57BL/6J mice = test: Splenomegaly induced by protein-mediated (Ovalbumin) immunization; assay type: in vivo; details: 5 mg/kg 2 hours before and daily after immunization, one week
Experimental: C57BL/6J mice were immunized once by intraperitoneal (i.p.) injection of 200 μg of OVA protein adsorbed onto Alhydrogel adjuvant 2% (Sigma Aldrich®). These mice were administered 100 μg (5 mg/kg) of guanabenz 2 hours before the immunization and daily after the immunization. […] One week after the immunization, mice were sacrificed, the spleen of each mouse was collected, and spleen weight was measured with an analytical balance.

[6] = system: patient with obesity-related diseases, such as fatty liver; details: cited from earlier work
B16F1 tumor-bearing mice = test: Tumor-induced splenomegaly in B16F1 tumor-bearing mice (spleen weight); assay type: in vivo; details: 5 mg/kg i.p. daily from tumor size around 100 mm^3
Experimental: (§3) B16F1, B16F10 melanoma cells, and CT26 colon carcinoma cells were cultured in IMDM medium supplemented with 10% Fetal bovine serum (FBS). C57BL/6 mice were injected subcutaneously with 1 million B16F1 or B16F10 melanoma cells at an age between 6 to 8 weeks. The mice received daily injections of guanabenz (5 mg/kg, i.p.) or PBS when the tumor size was around 100 mm^3. Mice were sacrificed when the tumor in control group reached 1,000 mm^3. Spleen were isolated and weighted. […] TiRP tumor bearing mice received daily injections of clonidine (5 mg/kg, i.p.), romifidine (5 mg/kg, i.p.) or PBS when the tumor size was around 500 mm^3. Mice were sacrificed when the tumor in control group reached 1,500 mm^3. Spleen were isolated and spleen weight was measured with an analytical balance.

[7] = system: B16F10 tumor-bearing mice; test: Tumor-induced splenomegaly in B16F10 tumor-bearing mice (spleen weight); assay type: in vivo; details: 5 mg/kg i.p. daily from tumor size around 100 mm^3
Experimental: as §3

Row | SMILES | splenomegaly [1] | spleen weight (romiplostim-induced splenomegaly) (C57BL/6 J wild-type mice) | spleen weight (romiplostim-induced splenomegaly) (Adra2a KO mice) | spleen weight (tumor-induced splenomegaly) [2] | spleen weight (tumor-induced splenomegaly) (TiRP tumor bearing mice) | spleen weight (tumor-induced splenomegaly) [3] | spleen weight / spleen size [4] | spleen weight / spleen size (TiRP-tumor bearing mice) | spleen weight (myelofibrosis-induced splenomegaly), prevention [5] | spleen weight (myelofibrosis-induced splenomegaly), treatment [5] | spleen weight (immunization-induced splenomegaly) (DBA/2 mice) | spleen weight (immunization-induced splenomegaly) (C57BL/6J mice) | weight of the spleen [6] | spleen weight (tumor-induced splenomegaly) (B16F1 tumor-bearing mice) | spleen weight (tumor-induced splenomegaly) [7]
1 | CN1C[C@H](C(=O)N[C@]2(C)O[C@@]3(O)[C@@H]4CCCN4C(=O)[C@H](Cc4ccccc4)N3C2=O)C=C2c3cccc4[nH]cc(c34)C[C@H]21 [ergotamine] | reduced flatworm-induced splenomegaly |  |  |  |  |  |  |  |  |  |  |  |  |  | 
2 | Clc1cccc(Cl)c1N=C1NCCN1 [clonidine] |  | significantly reduced the splenomegaly | not in Adra2a KO mice | no inhibition is observed | TiRP tumor-induced splenomegaly is inhibited | inhibit tumor-induced splenomegaly | reduced the spleen size | reduced spleen size | significantly reduced the splenomegaly | significantly reduced the splenomegaly |  |  |  |  | 
3 | Fc1cccc(Br)c1NC1=NCCN1 [romifidine] |  |  |  |  | TiRP tumor-induced splenomegaly is inhibited |  |  |  |  |  |  |  |  |  | 
4 | N=C(N)N/N=C/c1c(Cl)cccc1Cl [guanabenz] |  |  |  | no inhibition is observed | can reverse the tumor-induced splenomegaly | inhibit tumor-induced splenomegaly | reduced the spleen size |  | significantly reduced the splenomegaly | significantly reduced the splenomegaly | inhibits splenomegaly | inhibits splenomegaly | promoting a decrease in the weight of the spleen | can reverse the tumor-induced splenomegaly | can reverse the tumor-induced splenomegaly
